42 molecules from US9745297B2, “Compounds as modulators of RORC” (Boehringer Ingelheim International GmbH, priority 2013, dated 2017) can be followed below.

The target of this assay is T1, RORγt (Homo sapiens, UniProt P51449).
T1 construct: expressed in transfected cells
T1 sequence (P51449 269-508 limits assumed): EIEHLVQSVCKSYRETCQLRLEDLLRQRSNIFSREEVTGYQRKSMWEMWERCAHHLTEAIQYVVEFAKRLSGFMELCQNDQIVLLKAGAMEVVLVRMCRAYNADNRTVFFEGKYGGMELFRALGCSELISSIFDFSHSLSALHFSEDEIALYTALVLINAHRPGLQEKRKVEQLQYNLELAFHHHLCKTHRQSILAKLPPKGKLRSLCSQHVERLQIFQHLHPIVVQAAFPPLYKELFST
As to the kind of experiment: RGA Assay: nuclear receptor transactivation assay, RORγt transactivation of a luciferase reporter. Particulars: transiently transfected HEK 293 cells (pGL4.3 luc2P/GAL4UAS, pBIND Gal4DBD hRORC LBD), 20-24 hours incubation, luciferase readout. In kind it is cell-based. The protocol:
A nuclear receptor transactivation assay was performed to quantitate the ability of test compounds to inhibit RORγt transactivation of a luciferase reporter. A similar assay is described in: Khan et al., Bioorganic & Medicinal Chemistry Letters 23 (2013), 532-536. The system uses transiently transfected HEK 293 cells cotransfected with two plasmids (pGL4.3, luc2P/GAL4UAS/Hygro, and pBIND, Ga14DBD hRORC LBD1-3). The positive control is co-transiently transfected with both plasmids, and the negative control contains the pGL4.3 promoter sequence. Assays were assembled in 384 well plates where transiently transfected cells and test compound at varying concentrations were incubated for 20-24 hours. The next day, assays plates are taken out and equillibrated at RT for 20-30 minutes. Bright-Glo™ Luciferase Assay System is used to detect Luciferase production. After addition of Bright GLO detection reagent, the plates were incubated at RT for 20 minutes. The plates were read on an Envision plate reader to measure luminescence signal. The RLU signal is converted to POC relative to control and blank wells.
Compound Dilution Buffer:
Bright Glo Luciferase Assay System: Promega #E2620
Thaw lysis buffer provided in kit, add 100 mL lysis buffer to substrate powder.
On the technique in general: In a reporter assay the amount or activity of a reporter protein is the signal.
As for `Cc1cc(C)c(Oc2ccc3c(n2)C2(CCCC2)CN3C(=O)NCc2ccc(S(C)(=O)=O)cc2)cn1` [Example 60], the IC50 came to 8500 nM. In other words, the single-digit micromolar range.
In turn, `CNS(=O)(=O)c1ccc(CNC(=O)N2CC3(CCCC3)c3nc(Oc4cnc(C)cc4C)ccc32)cc1` [Example 61] displayed an IC50 of 7600 nM. The IC50 values of the last two molecules are within 1.5-fold of each other.
With `CS(=O)(=O)c1ccc(CNC(=O)N2CC3(CCCC3)c3nc(Cl)ccc32)cc1` [Example 62], the IC50 was above 30000 nM.
As to `CCS(=O)(=O)c1ccc(CNC(=O)N2CC3(CCCC3)c3nc(-c4cn5ccnc5cc4C)ccc32)cc1` [Example 63], the IC50 was above 30000 nM.
As to `CCS(=O)(=O)c1ccc(CNC(=O)N2CC3(CCCC3)c3nc(-c4cnc(C#N)nc4C4CC4)ccc32)cc1` [Example 64], the IC50 turned out to be 16000 nM.
As to `CS(=O)(=O)c1ccc(CNC(=O)N2CC3(CCCC3)c3nc(-c4cnc(C#N)nc4C4CC4)ccc32)cc1` [Example 65], 18000 nM corresponded to half-maximal inhibition (IC50).
The molecule `COc1ncnc(C2CC2)c1-c1ccc2c(n1)C1(CCCC1)CN2C(=O)NCc1ccc(S(C)(=O)=O)cc1` [Example 66] showed an IC50 of 650 nM.
`CCS(=O)(=O)c1ccc(CNC(=O)N2CC3(CCCC3)c3nc(-c4c(OC(C)C)ncnc4C4CC4)ccc32)cc1` [Example 67] registered an IC50 of 830 nM.
Under `CC(C)Oc1ncnc(C2CC2)c1-c1ccc2c(n1)C1(CCCC1)CN2C(=O)NCc1ccc(S(C)(=O)=O)cc1` [Example 68] stands 2500 nM.
Under `CCOc1ncnc(C2CC2)c1-c1ccc2c(n1)C1(CCCC1)CN2C(=O)NCc1ccc(S(C)(=O)=O)cc1` [Example 69] stands 1100 nM; under `CCOc1ncnc(C2CC2)c1-c1ccc2c(n1)C1(CCCC1)CN2C(=O)NCc1ccc(S(=O)(=O)CC)cc1` [Example 70], 760 nM.
The same measure for `CCC1(C)CN(C(=O)NCc2ccc(S(=O)(=O)CC)cc2)c2ccc(-c3cncnc3C(C)C)nc21` (stereo not drawn) [Example 72]: 2800 nM.
As to `CCC1(C)CN(C(=O)NCc2ccc(S(=O)(=O)CC)cc2)c2ccc(-c3c(OC)ncnc3C3CC3)nc21` (stereo not drawn) [Example 73], the midpoint of inhibition, the IC50, lay at 1500 nM. This IC50 lies about 1.9-fold lower than the previous one.
In the case of `CCS(=O)(=O)c1ccc(CNC(=O)N2CC3(CCCC3)c3nc(-c4c(OC)ncnc4C(F)(F)F)ccc32)cc1` [Example 74], the IC50 is 310 nM. Against the preceding molecule, the IC50 is about 4.8-fold lower.
Under `COc1ncnc(C(F)(F)F)c1-c1ccc2c(n1)C1(CCCC1)CN2C(=O)NCc1ccc(S(C)(=O)=O)cc1` [Example 75] stands 3700 nM.
`CCS(=O)(=O)N1CCC(CNC(=O)N2CC3(CCCC3)c3nc(-c4c(OC)ncnc4C4CC4)ccc32)CC1` [Example 76] came in with a 50% inhibitory concentration (IC50) of 15000 nM.
In the case of `COc1ncnc(C2CC2)c1-c1ccc2c(n1)C(C)(C)CN2C(=O)NCc1ccc(S(C)(=O)=O)cc1` [Example 77], half-maximal inhibition (IC50) was put at 4000 nM.
As to `CNS(=O)(=O)c1ccc(CNC(=O)N2CC(C)(C)c3nc(-c4c(OC)ncnc4C4CC4)ccc32)cc1` [Example 78], the IC50 was 2400 nM. This IC50 lies about 1.7-fold lower than the previous one.
Turning to `CCS(=O)(=O)c1ccc(CNC(=O)N2CC3(CCCC3)c3nc(-c4c(C)ncnc4C4CC4)ccc32)cc1` [Example 79], the IC50 is 380 nM. Compared with the last molecule, the IC50 is about 6.3-fold lower.
The same measure for `Cc1ncnc(C2CC2)c1-c1ccc2c(n1)C1(CCCC1)CN2C(=O)NCc1ccc(S(C)(=O)=O)cc1` [Example 80]: 840 nM; for `CCS(=O)(=O)c1ccc(CNC(=O)N2CC(C)(C)c3nc(-c4c(OC)ncnc4C(F)(F)F)ccc32)cc1` [Example 81]: 1500 nM.
The molecule `CCS(=O)(=O)c1ccc(CNC(=O)N2CC3(CCCC3)c3nc(-c4cc(CN5CC[C@@H](O)C5)ccc4C4CC4)ccc32)cc1` [Example 82] returned an IC50 of 7000 nM.
As to `CCS(=O)(=O)c1ccc(CNC(=O)N2CC3(CCCC3)c3nc(-c4cc(CN5CC[C@H](O)C5)ccc4C4CC4)ccc32)cc1` [Example 83], half-maximal inhibition (IC50) was put at 6900 nM.
For the molecule `CCS(=O)(=O)c1ccc(CNC(=O)N2CC3(CCCC3)c3nc(-c4cc(CN5CC[C@@H](O)C5)ccc4C)ccc32)cc1` [Example 84], the IC50 was above 30000 nM.
The molecule `CCS(=O)(=O)c1ccc(CNC(=O)N2CC3(CCCC3)c3nc(-c4cc(CN5CC[C@H](O)C5)ccc4C)ccc32)cc1` [Example 85] showed an IC50 above 30000 nM.
In turn, `CNS(=O)(=O)c1ccc(CNC(=O)N2CC3(CCCC3)c3cc(-c4ccc(F)cc4C)ncc32)cc1` [Example 86] yielded an IC50 of 2600 nM.
Under `COc1ccc(-c2cc3c(cn2)N(C(=O)NCc2ccc(S(C)(=O)=O)cc2)CC3(C)C)c(C(F)(F)F)c1` [Example 87] stands 3900 nM; under `CC(C)c1ncncc1-c1cc2c(cn1)N(C(=O)NCc1ccc(S(C)(=O)=O)cc1)CC2(C)C` [Example 88], above 30000 nM; under `Cc1cc(F)ccc1-c1cc2c(cn1)N(C(=O)NCc1ccc(S(C)(=O)=O)cc1)CC2(C)C` [Example 89], above 30000 nM.
`COc1cc(C)c(-c2cc3c(cn2)N(C(=O)NCc2ccc(S(C)(=O)=O)cc2)CC3(C)C)cn1` [Example 90] registered an IC50 above 30000 nM.
`Cc1cc(O)ccc1-c1cc2c(cn1)N(C(=O)NCc1ccc(S(C)(=O)=O)cc1)CC2(C)C` [Example 91] showed an IC50 above 30000 nM.
The same measure for `Cc1cc(C#N)ccc1-c1cc2c(cn1)N(C(=O)NCc1ccc(S(C)(=O)=O)cc1)CC2(C)C` [Example 92]: above 30000 nM; for `CCS(=O)(=O)c1ccc(CNC(=O)N2CC3(CCCC3)c3cc(-c4c(OC)ncnc4C4CC4)ncc32)cc1` [Example 93]: 740 nM.
For `CCS(=O)(=O)c1ccc(CNC(=O)N2CC(C)(C)c3cc(-c4c(OC)ncnc4C4CC4)ncc32)cc1` [Example 94], 3800 nM corresponded to half-maximal inhibition (IC50).
Consider `CCS(=O)(=O)c1ccc(CNC(=O)N2CC3(CCCC3)c3cc(-c4cnc(OC)nc4C4CC4)ncc32)cc1` [Example 95], for which the IC50 is above 30000 nM.
The same measure for `CCS(=O)(=O)c1ccc(CNC(=O)N2CC3(CCCC3)c3cc(Cl)ncc32)cc1` [Example 96]: above 30000 nM.
`CCS(=O)(=O)c1ccc(CNC(=O)N2CC3(CCCC3)c3nc(-c4c(C5CC5)ncnc4C4CC4)ccc32)cc1` [Example 97] registered an IC50 of 200 nM.
With `CCS(=O)(=O)c1ccc(CNC(=O)N2CC3(CCCC3)c3nc(-c4c(C5CC5)ncnc4C4CC4)ccc32)nc1` [Example 98], the IC50 was 370 nM.
Turning to `CCS(=O)(=O)c1ccc(CNC(=O)N2CC3(CCCC3)c3nc(-c4c(C)ncnc4C(F)(F)F)ccc32)cc1` [Example 99], the IC50 amounted to 360 nM.
`CCc1ncnc(C2CC2)c1-c1ccc2c(n1)C1(CCCC1)CN2C(=O)NCc1ccc(S(=O)(=O)CC)cc1` [Example 100] registered an IC50 of 220 nM.
The same measure for `CCc1ncnc(C2CC2)c1-c1ccc2c(n1)C1(CCCC1)CN2C(=O)NCc1ccc(S(=O)(=O)CC)cn1` [Example 101]: 420 nM; for `CCS(=O)(=O)c1cnc(CNC(=O)N2CC3(CCCC3)c3nc(-c4c(OC)ncnc4C4CC4)ccc32)nc1` [Example 102]: 730 nM.

One may read the IC50 as the concentration needed to halve the response being measured. A low value points to greater potency in that assay.
